Reference: patent publication US10023610B2, “Ligands for prevention of neurotoxicity of the alzheimer's disease related amyloid-beta peptide” (AlphaBeta AB, priority 2014, dated 2018)
“Also recorded” adds a separate entry of the source.

How the values were obtained:
[1] = test system: kainate-induced gamma oscillations; test: Control: ligands alone on kainate-induced gamma oscillations in hippocampal slices (absence of Aβ); format: cell-based, C57BL/6 mice
Procedure: (§1) Experiments were carried out in accordance with ethical permit granted by Norra Stockholms Djurförsöksetiska Nämnd to AF (N45/13). C57BL/6 mice of either sex (postnatal days 14-23, supplied from Charles River, Germany) were used in all experiments. The animals were deeply anaesthetized using isofluorane before being sacrificed by decapitation.
(§2) The brain was dissected out and placed in ice-cold ACSF (artificial cerebrospinal fluid) modified for dissection. This solution contained (in mM); 80 NaCl, 24 NaHCO3, 25 Glucose, 1.25 NaH2PO4, 1 Ascorbic acid, 3 NaPyruvate, 2.5 KCl, 4 MgCl2, 0.5 CaCl2, 75 Sucrose. Horizontal sections (350 μm thick) of the ventral hippocampi of both hemispheres were prepared with a Leica VT1200S vibratome (Microsystems, Stockholm, Sweden). Immediately after slicing sections were transferred to a submerged incubation chamber containing standard ACSF (in mM): 124 NaCl, 30 NaHCO3, 10 Glucose, 1.25 NaH2PO4, 3.5 KCl, 1.5 MgCl2, 1.5 CaCl2. The chamber was held at 34° C. for at least 20 minutes after dissection. It was subsequently allowed to cool to ambient room temperature (19-22° C.) for a minimum of 40 minutes. Peptides were added to the incubation solution 15 minutes before transferring slices to the interface-style recording chamber. While incubating slices were continuously supplied with carbogen gas (5% CO2, 95% O2) bubbled into the ACSF. Chemical compounds used in intracellular and extracellular solutions were obtained from Sigma-Aldrich Sweden AB (Stockholm, Sweden). The Kainic acid was obtained from Tocris.
(§3) Recordings were carried out in hippocampal area CA3 with borosilicate glass microelectrodes, pulled to a resistance of 3-7 MO. Local field potentials (LFP) were recorded at 34° C. using microelectrodes filled with ACSF placed in stratum pyramidale. LFP oscillations were elicited by applying kainic acid (100 nM) to the extracellular bath. The oscillations were allowed to stabilize for 20 minutes before any recordings were carried out. LFP recordings were performed with a 4 channel amplifier/signal conditioner M102-amplifier (Electronics lab, Faculty of Mathematics and Natural Sciences, University of Cologne, Cologne, Germany). The signals were sampled at 10 kHz, conditioned using a Hum Bug 50 Hz noise eliminator (Quest Scientific, North Vancouver, BC, Canada), software low-pass filtered at 1 kHz, digitized and stored using a Digidata 1322A and Clampex 9.6 software (Molecular devices, CA, USA).
(§4) Power spectral density plots (from 60 s long LFP recordings) were calculated in averaged Fourier-segments of 8192 points using Axograph X (Kagi, Berkeley, Calif., USA). Oscillation power was calculated by integrating the power spectral density between 20 and 80 Hz. Data is reported as means±standard errors of the means in the text and as median and upper/lower quartile in the figure box plots. For statistical analysis the Mann-Whitney U-test was used.

Aβ1-42 [2] = target: T1, Aβ1-42 (Homo sapiens, UniProt P05067); test: Prevention of Aβ-induced decrease of kainate-induced gamma oscillations in hippocampal slices (LFP, area CA3); format: cell-based, C57BL/6 mice
T1 construct: Samples of Aβ1-42 peptide (5 μM) alone or mixed with 5 or 25 μM of each ligand
Procedure: as §1, §2, §3, §4

Aβ1-42 [3] = target: T1, Aβ1-42; test: Electron microscopy of fibril formation from Aβ1-42 in the presence of ligands; format: biochemical; details: Aβ1-42 5 μM with 5 or 25 μM ligand, 37° C., 9 hours
Procedure: Samples of Aβ1-42 peptide (5 μM) alone or mixed with 5 or 25 μM of each ligand in a volume of 100 μl, were incubated at 37° C. for 9 hours. Aliquotes of 2 μl were taken from the different samples, adsorbed on copper grids and negatively stained with 2.5% uranyl acetate in 50% ethanol. The samples were examined and photographed using a Hitachi H7100 microscope operated at 75 kV.

[4] = 50 nM ligand, equimolar (1:1) to 50 nM Aβ1-42, 15 min incubation
[5] = 250 nM ligand with 50 nM Aβ, 15 min incubation

T1 sequence (P05067 672-713 limits assumed): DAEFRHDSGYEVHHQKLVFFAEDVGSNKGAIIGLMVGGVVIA

prevention of the Aβ-induced decrease of kainate-induced gamma oscillations (Aβ1-42 [2]; [5])	Compound	effect of ligand alone on kainate-induced gamma oscillations [1]	effectiveness in preventing Aβ-induced degradation of network gamma oscillations compared with first generation ligands (Aβ1-42 [2])	prevention of the Aβ-induced decrease of kainate-induced gamma oscillations (Aβ1-42 [2]; [4])	prevention of the Aβ-induced decrease of kainate-induced gamma oscillations (Aβ1-42 [2]; 50 nM ligand, equimolar (1:1) to 50 nM Aβ1-42, 15 min incubation, listed as DH-20)	fibril formation by Aβ1-42 (electron microscopy) (Aβ1-42 [3])
–	CCCCCCCCCC(=O)NCCNC[C@H](N)C(=O)N[C@H](CCN1C(=O)c2cccc3c(N(C)C)ccc(c23)C1=O)C(=O)NCC[C@@H](NC(=O)CCCC(=O)O)C(=O)O [DH18_Dmn, HO-Gla-D-Dab-(COOH)-D-DMNA-L-Dap-(NH2)-AE-decanoyl]	neither of these ligands had an effect	more effective than first generation ligands	complete prevention; also recorded: effective also at only a 1:1 ratio; also recorded: reverse Aβ-induced reduction of gamma oscillation; also recorded: prevention of Aβ-induced degradation of network gamma oscillations	–	less fibrils
–	CCCCCCCC[C@H](N)CNCC[C@H](N)C(=O)N[C@H](CCN1C(=O)c2cccc3c(N(C)C)ccc(c23)C1=O)C(=O)NCC[C@@H](NC(=O)CCCC(=O)O)C(=O)O [8AEDabDmnDabGla, HO-Gla-D-Dab-(COOH)-D-DMNA-L-Dap-(NH2)—CH2CH(NH2)—C8]	–	–	–	–	less fibrils
–	CCCCCCCCCC(=O)NCCNC[C@H](N)C(=O)N[C@H](Cc1c[nH]c2ccccc12)C(=O)NCC[C@@H](NC(=O)CCCC(=O)O)C(=O)O [DH18, (R)—N^4—[N^2—(N^3—(N-decanoyl-2-aminoethyl)-(S)-2,3-diaminopropionyl)-D-tryptophanyl]-N^2-glutanoyl-2,4-diaminobutanoic acid]	no effect	–	–	–	–
higher prevention	CCCCCCCCCC(=O)NCCNCCN [Dec-DETA, reference compound]	neither of these ligands had an effect	–	–	–	–
only partial prevention	N=C(N)CCNCCCC(N)C(=O)NC(Cc1c[nH]c2ccccc12)C(=O)NCCC(NC(=O)CCCC(=O)O)C(=O)O (centres unmarked) [Pep1b, reference compound]	neither of these ligands had an effect	–	–	–	fibrils were formed but to somewhat lesser extent

Compound	prevention of the Aβ-induced decrease of kainate-induced gamma oscillations (Aβ1-42 [2]; [5])	effect of ligand alone on kainate-induced gamma oscillations [1]	effectiveness in preventing Aβ-induced degradation of network gamma oscillations compared with first generation ligands (Aβ1-42 [2])	prevention of the Aβ-induced decrease of kainate-induced gamma oscillations (Aβ1-42 [2]; [4])	prevention of the Aβ-induced decrease of kainate-induced gamma oscillations (Aβ1-42 [2]; 50 nM ligand, equimolar (1:1) to 50 nM Aβ1-42, 15 min incubation, listed as DH-20)	fibril formation by Aβ1-42 (electron microscopy) (Aβ1-42 [3])
NC(=O)CCCCCCCCCCC(=O)NCCNC[C@H](N)C(=O)N[C@H](Cc1c[nH]c2ccccc12)C(=O)NCC[C@@H](NC(=O)CCCC(=O)O)C(=O)O [DH20, (R)—N^4—[N^2—(N^3—(N-(12-amino-12-oxododecanoyl)-2-aminoethyl)-(S)-2,3-diaminopropionyl)-D-tryptophanyl]-N^2-glutanoyl-2,4-diaminobutanoic acid]	complete prevention; also recorded: reverses Aβ-induced reduction of gamma oscillation	neither of these ligands had an effect; also recorded: no effect	more effective than first generation ligands	complete prevention	effective also at only a 1:1 ratio; also recorded: reverse Aβ-induced reduction of gamma oscillation	less fibrils
